Measurements published in patent publication US20230322722A1, “MODULATORS OF MYC FAMILY PROTO-ONCOGENE PROTEIN” (Nalo Therapeutics, priority 2020, published 2023).

Columns and labels:
MycN protein (n-myc) = target: T1, MycN protein (n-myc) (Homo sapiens, UniProt P04198); test: Degradation of MycN protein, 24 h treatment, JESS Western, SK-N-BE(2) cells (Example 161); assay type: cell-based; details: SKNBE2 cells
T1 construct: either 2×10^6 of L-363 (human leukemia cell line) or SKNBE2 (neuroblastoma cell line) cells; endogenous in cells; host or cells: SKNBE2 / SK-N-BE(2) neuroblastoma cells
T1 sequence (P04198 1-464): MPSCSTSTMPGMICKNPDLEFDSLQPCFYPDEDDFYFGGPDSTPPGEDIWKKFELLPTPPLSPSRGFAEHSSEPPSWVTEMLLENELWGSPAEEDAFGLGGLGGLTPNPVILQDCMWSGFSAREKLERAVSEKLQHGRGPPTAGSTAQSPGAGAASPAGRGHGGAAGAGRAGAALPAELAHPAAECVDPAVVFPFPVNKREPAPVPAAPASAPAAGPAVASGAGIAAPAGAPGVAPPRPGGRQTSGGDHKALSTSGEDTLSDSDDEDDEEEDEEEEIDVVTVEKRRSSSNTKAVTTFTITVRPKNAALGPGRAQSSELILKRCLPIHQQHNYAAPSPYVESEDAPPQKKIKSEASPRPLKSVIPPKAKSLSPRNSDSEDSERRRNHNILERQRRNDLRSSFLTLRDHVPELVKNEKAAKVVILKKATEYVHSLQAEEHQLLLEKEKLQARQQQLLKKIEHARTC
Description: (§1) For L363 cells (suspension), 1E6 cells were plated into each well of a 6 well plate. For SK-N-BE(2) cells (adherent), 5E5 cells were plated into each well of a 6 well dish. […] All compounds were diluted to 10 mM in DMSO. Cells were treated with the compound for 24 hrs, then for both cell types, media containing cells were removed from wells into a 15 ml centrifuge tube, and remaining adherent SK-N-BE(2) cells were also scraped from the wells into the appropriate tubes. Tubes were centrifuged, cells were washed with PBS then re-centrifuged to pellet cells. A RIPA buffer cocktail was added to the cells on ice for 5 mins. Cell lysates were clarified by centrifugation and stored at −80 degrees until required. BCA assay was performed on each lysate to determine the protein concentration.
(§2) For validation studies of antibodies, lysates and antibodies were used at a number of concentrations (Lysates: 2, 1, 0.2 mg/ml; Antibodies: 1 in 50, 1 in 200 dilution). Once an appropriate lysate concentration and antibody concentration was determined, samples were screened in the JESS technology (Protein Simple, San Jose, CA—https://www.proteinsimple.com/jess.html).
(§3) Target protein antibodies (n-myc and c-myc) were detected in the chemi-luminescence channel and loading controls (tubulin and GAPDH) were detected using a Near Infra Red (NIR) labeled secondary antibody.
(§4) For SK-N-EB2 adherent cells, 5E5 cells in 1.9 mls media were plated into 6 well dishes and incubated for 24 hrs. […] Cells were scrapped off the plate, centrifuged, washed with PBS, centrifuged, then a RIPA buffer cocktail added to the cells (100 ul), centrifuged and stored at −80 for later analysis. For L363 suspension cells, 1E6 cells were plated into […] (950 ul media) and incubated for 24 hrs. […] Cells were aspirated into tubes, centrifuged, washed with PBS, centrifuged, then a RIPA buffer cocktail added to the cells (100 ul), centrifuged and stored at −80 for later analysis.
(§5) For Western blot, a BCA (total protein) assay was run on all samples, these were then run in batches of 5 compounds plus control (DMSO) on each Western blot run—n-myc and c-myc were run in separate experiments in the chemiluminescence channel. Both tubulin and GAPDH were run as loading controls in all lanes in the near infra red channel.

MycC protein (c-myc) = target: T2, MycC protein (c-myc) (Homo sapiens, UniProt P01106); test: Degradation of MycC protein, 24 h treatment, JESS Western, L363 cells (Example 161); assay type: cell-based; details: L-363 cells
T2 construct: either 2×10^6 of L-363 (human leukemia cell line) cells; endogenous in cells; host or cells: L-363 / L363 human leukemia cells
Description: as §1, §2, §3, §4, §5

T2 sequence (P01106 whole entry): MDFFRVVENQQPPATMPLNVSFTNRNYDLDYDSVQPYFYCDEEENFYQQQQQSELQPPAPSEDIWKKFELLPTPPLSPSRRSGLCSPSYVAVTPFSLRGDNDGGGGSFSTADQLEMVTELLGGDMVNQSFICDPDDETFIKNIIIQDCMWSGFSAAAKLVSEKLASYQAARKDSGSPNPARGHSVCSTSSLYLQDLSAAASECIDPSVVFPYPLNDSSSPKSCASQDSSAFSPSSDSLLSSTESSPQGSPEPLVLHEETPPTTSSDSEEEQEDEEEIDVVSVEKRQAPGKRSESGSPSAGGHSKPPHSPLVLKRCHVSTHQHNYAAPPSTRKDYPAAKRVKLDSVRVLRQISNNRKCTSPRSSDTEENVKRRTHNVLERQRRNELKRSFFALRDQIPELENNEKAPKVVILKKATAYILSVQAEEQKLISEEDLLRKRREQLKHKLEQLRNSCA

Row | inhibition at 0.5 µM (MycN protein (n-myc)) | inhibition at 1 µM (MycN protein (n-myc)) | inhibition at 3 µM (MycN protein (n-myc)) | inhibition at 6 µM (MycN protein (n-myc)) | inhibition at 1 µM (MycC protein (c-myc)) | inhibition at 3 µM (MycC protein (c-myc)) | inhibition at 6 µM (MycC protein (c-myc)) | inhibition at 0.5 µM (MycC protein (c-myc)) | SMILES
1 | 20 to 49% | 50 to 79% | 80 to 100% | 80 to 100% | 80 to 100% | 80 to 100% | 80 to 100% |  | CN(c1nccc(Nc2cc(C3CC3)[nH]n2)n1)C1CC2(C1)CN(C(=O)c1cn(C)nn1)C2 [Compound 31, (6-((4-((5-Cyclopropyl-1H-pyrazol-3-yl)amino)pyrimidin-2-yl)(methyl)amino)-2-azaspiro[3.3]heptan-2-yl)(1-methyl-1H-1,2,3-triazol-4-yl)methanone]
2 |  |  | 80 to 100% | 80 to 100% |  | 80 to 100% | 80 to 100% |  | CN(c1nccc(Nc2cc(C3CC3)[nH]n2)n1)C1CC2(C1)CN(C(=O)C1CCOCC1)C2 [Compound 32, (6-((4-((5-Cyclopropyl-1H-pyrazol-3-yl)amino)pyrimidin-2-yl)(methyl)amino)-2 azaspiro[3.3]heptan-2-yl)(tetrahydro-2H-pyran-4-yl)methanone]
3 | < 20% | 20 to 49% | 20 to 49% | 50 to 79% | < 20% | 50 to 79% | 80 to 100% |  | CN(c1nccc(Nc2cc(C3CC3)[nH]n2)n1)C1CC2(C1)CN(CC1CC1)C2 [Compound 21, N4-(5-Cyclopropyl-1H-pyrazol-3-yl)-N2-(2-(cyclopropylmethyl)-2-azaspiro[3.3]heptan-6-yl)-N2-methylpyrimidine-2,4-diamine]
4 | 20 to 49% | 20 to 49% | 50 to 79% | 80 to 100% | 80 to 100% | 80 to 100% | 80 to 100% | 50 to 79% | CN(c1nccc(Nc2cc(C3CC3)[nH]n2)n1)C1CC2(C1)CN(CCCc1nc3ccccc3o1)C2 [Compound 29, N2-(2-(3-(Benzo[d]oxazol-2-yl)propyl)-2-azaspiro[3.3]heptan-6-yl)-N4-(5-cyclopropyl-1H-pyrazol-3-yl)-N2-methylpyrimidine-2,4-diamine]
5 |  |  | < 20% | < 20% | 20 to 49% |  |  | 20 to 49% | CN(c1nccc(Nc2cc(C3CC3)[nH]n2)n1)C1CC2(C1)CN(Cc1ccccc1F)C2 [Compound 25, N4-(5-Cyclopropyl-1H-pyrazol-3-yl)-N2-(2-(2-fluorobenzyl)-2-azaspiro[3.3]heptan-6-yl)-N2-methylpyrimidine-2,4-diamine]
6 | 20 to 49% | 20 to 49% |  | < 20% | 20 to 49% | 50 to 79% | 80 to 100% | < 20% | CN(c1nccc(Nc2cc(C3CC3)[nH]n2)n1)C1CC2(C1)CN(Cc1cccc(OC(F)(F)F)c1)C2 [Compound 27, N4-(5-Cyclopropyl-1H-pyrazol-3-yl)-N2-methyl-N2-(2-(3-(trifluoromethoxy)benzyl)-2-azaspiro[3.3]heptan-6-yl)pyrimidine-2,4-diamine]
7 |  | < 20% |  | 20 to 49% | < 20% | < 20% | 80 to 100% |  | CN(c1nccc(Nc2cc(C3CC3)[nH]n2)n1)C1CC2(C1)CN(Cc1cc(F)cc(F)c1)C2 [Compound 26, N4-(5-Cyclopropyl-1H-pyrazol-3-yl)-N2-(2-(3,5-difluorobenzyl)-2-azaspiro[3.3]heptan-6-yl)-N2-methylpyrimidine-2,4-diamine]
8 |  |  |  | 80 to 100% | 50 to 79% | 80 to 100% | 80 to 100% | < 20% | CN(c1nccc(Nc2cc(C3CC3)[nH]n2)n1)C1CC2(C1)CN(CC(=O)Nc1cccc(S(C)(=O)=O)c1)C2 [Compound 23, 2-(6-((4-((5-Cyclopropyl-1H-pyrazol-3-yl)amino)pyrimidin-2-yl)(methyl)amino)-2-azaspiro[3.3]heptan-2-yl)-N-(3-(methylsulfonyl)phenyl)acetamide]
9 |  |  | 20 to 49% | 50 to 79% |  |  | 80 to 100% |  | CN(c1nccc(Nc2cc(C3CC3)[nH]n2)n1)C1CC2(C1)CN(CC1CCOCC1)C2 [Compound 20, N4-(5-Cyclopropyl-1H-pyrazol-3-yl)-N2-methyl-N2-{2-[(oxan-4-yl)methyl]-2-azaspiro[3.3]heptan-6-yl}pyrimidine-2,4-diamine]
10 | < 20% | 20 to 49% | 50 to 79% | 80 to 100% | 50 to 79% | 80 to 100% | 80 to 100% | 20 to 49% | CN(c1nccc(Nc2cc(C3CC3)[nH]n2)n1)C1CC2(C1)CN(S(=O)(=O)c1cnn(C)c1)C2 [Compound 35, N4-(5-Cyclopropyl-1H-pyrazol-3-yl)-N2-methyl-N2-{2-[(1-methyl-1H-pyrazol-4-yl)sulfonyl]-2-azaspiro[3.3]heptan-6-yl}pyrimidine-2,4-diamine]
11 |  | < 20% | 20 to 49% | 50 to 79% |  | < 20% | 80 to 100% |  | CN1CCC(Nc2nccc(Nc3cc(C4CC4)[nH]n3)n2)CC1 [Compound 37, N4-(5-Cyclopropyl-1H-pyrazol-3-yl)-N2-(1-methylpiperidin-4-yl)pyrimidine-2,4-diamine]
12 | < 20% | < 20% | 80 to 100% | 80 to 100% |  | < 20% | 80 to 100% |  | CN(c1nccc(Nc2cc(C3CC3)[nH]n2)n1)C1CC2(C1)CN(C(=O)c1cccc(C(F)(F)F)c1)C2 [Compound 34, (6-((4-((5-Cyclopropyl-1H-pyrazol-3-yl)amino)pyrimidin-2-yl)(methyl)amino)-2 azaspiro[3.3]heptan-2-yl)(3-(trifluoromethyl)phenyl)methanone]

Row | SMILES | inhibition at 0.5 µM (MycN protein (n-myc)) | inhibition at 1 µM (MycN protein (n-myc)) | inhibition at 3 µM (MycN protein (n-myc)) | inhibition at 6 µM (MycN protein (n-myc)) | inhibition at 1 µM (MycC protein (c-myc)) | inhibition at 3 µM (MycC protein (c-myc)) | inhibition at 6 µM (MycC protein (c-myc)) | inhibition at 0.5 µM (MycC protein (c-myc))
13 | CN(c1nccc(Nc2cc(C3CCCC3)[nH]n2)n1)C1CCN(C2CC2)CC1 [Compound 17, N4-(5-Cyclopentyl-1H-pyrazol-3-yl)-N2-(1-cyclopropylpiperidin-4-yl)-N2-methylpyrimidine-2,4-diamine] | < 20% | 20 to 49% | 80 to 100% | 80 to 100% | 80 to 100% | 80 to 100% | 80 to 100% | 
14 | CN(c1nccc(Nc2cc(C3CC3)[nH]n2)n1)C1CCN(Cc2cc(F)cc(F)c2)CC1 [Compound 40, N4-(5-Cyclopropyl-1H-pyrazol-3-yl)-N2-(1-(3,5-difluorobenzyl)piperidin-4-yl)-N2-methylpyrimidine-2,4-diamine] | < 20% | 20 to 49% | 80 to 100% | 80 to 100% | 80 to 100% | 80 to 100% | 80 to 100% | < 20%
15 | CN(c1nccc(Nc2cc(C3CC3)[nH]n2)n1)C1CCN(C2CC2)CC1 [Compound 38, N4-(5-Cyclopropyl-1H-pyrazol-3-yl)-N2-(1-cyclopropylpiperidin-4-yl)-N2-methylpyrimidine-2,4 diamine] | 20 to 49% | 50 to 79% | 80 to 100% | 80 to 100% | 80 to 100% | 80 to 100% | 80 to 100% | 50 to 79%
16 | CN(c1nccc(Nc2cc(C3CCCC3)[nH]n2)n1)C1CCNCC1 [Compound 18, N4-(5-Cyclopentyl-1H-pyrazol-3-yl)-N2-methyl-N2-(piperidin-4-yl)pyrimidine-2,4-diamine] |  | 20 to 49% | 80 to 100% | 80 to 100% | 80 to 100% | 80 to 100% | 80 to 100% | 
